# Measurements as given in patent publication US11000033B2, “Ketone or oxime compound, and herbicide” (NISSAN CHEMICAL CORPORATION, priority 2014, dated 2021).
# How the values were obtained:
# Format in all cases: in vivo
# [1] = system: Echinochloa oryzacola Vasing.; test: Test Example 2: herbicidal activity, application during weed generation in submerged conditions (symbol A); details: Table 23; application herbicide amount 320 g/ha; grade 0-5 by criteria of Test Example 1
# Outline: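 Flooded-soil post-emergence test: emulsion of compound, water-diluted to target rate, applied to paddy water surface at 1–2 leaf stage of mixed-sown weeds (alluvial soil, 4 cm water, 25–30° C. greenhouse); visual rating 3 weeks after application.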
# [2] = system: Echinochloa crus-galli var. crus-galli; test: Test Example 3: herbicidal effect by foliage application, Wagner pot (symbol H); details: application herbicide amount 320 g/ha; for H (Echinochloa crus-galli var. crus-galli) herbicidal effect grade: Table 24
# Outline: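 Rating at 3 weeks post-spray, by defined criteria. Treatment: emulsion diluted with water to a predetermined amount, applied evenly to foliage of 14-day-old plants raised in alluvial soil flooded 0.1–0.5 cm deep at 25–30 °C, rice co-sown.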
# [3] = system: Digitaria ciliaris; test: Test Example 4: herbicidal effect by soil treatment (symbol F); details: for F: Digitaria ciliaris, herbicidal effect grade: 320 g/ha; for Herbicidal effect grade, F: Digitaria ciliaris: application herbicide amount 320 g/ha
# Outline: (§1)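 Seeds were sown in sterilized diluvial soil, covered with about 1.5 cm of soil, and the soil surface was sprayed with a water-diluted emulsion of the compound at a predetermined rate. Plants grew in a greenhouse at 25° C. to 30° C.; effects were scored visually 3 weeks after application.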
# [4] = system: Setaria viridis; test: Test Example 4: herbicidal effect by soil treatment (symbol G); details: for G: Setaria viridis, herbicidal effect grade: 320 g/ha; for Herbicidal effect grade, G: Setaria viridis: application herbicide amount 320 g/ha
# Outline: as §1
# [5] = system: Lolium multiflorum Lam.; test: Test Example 4: herbicidal effect by soil treatment (symbol K); details: for K: Lolium multiflorum Lam., herbicidal effect grade: 320 g/ha; for Herbicidal effect grade, K: Lolium multiflorum Lam.: application herbicide amount 320 g/ha
# Outline: as §1
# [6] = system: Apera spica-venti; test: Test Example 4: herbicidal effect by soil treatment (symbol L); details: for L: Apera spica-venti, herbicidal effect grade: 320 g/ha; for Herbicidal effect grade, L: Apera spica-venti: application herbicide amount 320 g/ha
# Outline: as §1
# [7] = system: Abutilon theophrasti; test: Test Example 4: herbicidal effect by soil treatment (symbol M); details: for M: Abutilon theophrasti, herbicidal effect grade: 320 g/ha; for Herbicidal effect grade, M: Abutilon theophrasti: application herbicide amount 320 g/ha
# Outline: as §1
# [8] = system: Chenopodium album; test: Test Example 4: herbicidal effect by soil treatment (symbol O); details: for O: Chenopodium album, herbicidal effect grade: 320 g/ha; for Herbicidal effect grade, O: Chenopodium album: application herbicide amount 320 g/ha
# Outline: as §1
# [9] = system: Galium spurium; test: Test Example 4: herbicidal effect by soil treatment (symbol Q); details: for Q: Galium spurium, herbicidal effect grade: 320 g/ha; for Herbicidal effect grade, Q: Galium spurium: application herbicide amount 320 g/ha
# Outline: as §1
# [10] = system: soybean; test: Test Example 4: effect on crop by soil treatment (symbol d); details: for d: soybean, effect grade on crop: 320 g/ha; for Effect on crop grade, d: soybean: application herbicide amount 320 g/ha
# Outline: (§2)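 Plants grew in a 25° C. to 30° C. greenhouse after spot-sowing of seeds, including beet, rapeseed, wheat and rice, into sterilized diluvial soil under roughly 1.5 cm of cover soil.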
# [11] = system: beet; test: Test Example 4: effect on crop by soil treatment (symbol f); details: for f: beet, effect grade on crop: 320 g/ha; for Effect on crop grade, f: beet: application herbicide amount 320 g/ha
# Outline: as §2
# [12] = system: Avena fatua; test: Test Example 5: herbicidal effect by foliage application, plastic box (symbol I); details: 320 g/ha, 3 weeks after application
# Outline: (§3)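 Post-emergence spray; diluvial soil (sterilized), ~1.5 cm seed cover; greenhouse 25–30° C; 14-day-old plants; water-diluted emulsion at predetermined dose; visual score at 3 wk post-treatment.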
# [13] = system: Apera spica-venti; test: Test Example 5: herbicidal effect by foliage application, plastic box (symbol L); details: 320 g/ha, 3 weeks after application
# Outline: as §3
# [14] = system: Abutilon theophrasti; test: Test Example 5: herbicidal effect by foliage application, plastic box (symbol M); details: 320 g/ha, 3 weeks after application
# Outline: as §3
# [15] = system: Chenopodium album; test: Test Example 5: herbicidal effect by foliage application, plastic box (symbol O); details: 320 g/ha, 3 weeks after application
# Outline: as §3
# [16] = system: Stellaria media; test: Test Example 5: herbicidal effect by foliage application, plastic box (symbol P); details: 320 g/ha, 3 weeks after application
# Outline: as §3
# [17] = system: Veronica persica; test: Test Example 5: herbicidal effect by foliage application, plastic box (symbol R); details: 320 g/ha, 3 weeks after application
# Outline: as §3
# [18] = system: rice plant; test: Test Example 5: effect on crop by foliage application, plastic box (symbol b); details: 320 g/ha, 3 weeks after application
# Outline: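 Diluvial soil, sterilized and boxed (21 × 13 × 7 cm), received spot-sown seed covered by about 1.5 cm soil; plants were then greenhouse-grown at 25–30° C.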
Structure (SMILES),"Herbicidal effect grade, A: Echinochloa oryzacola Vasing. [1]","herbicidal effect on H (Echinochloa crus-galli var. crus-galli), grade 0-5 [2]","F: Digitaria ciliaris, herbicidal effect grade [3]","G: Setaria viridis, herbicidal effect grade [4]","K: Lolium multiflorum Lam., herbicidal effect grade [5]","L: Apera spica-venti, herbicidal effect grade [6]","M: Abutilon theophrasti, herbicidal effect grade [7]","O: Chenopodium album, herbicidal effect grade [8]","Q: Galium spurium, herbicidal effect grade [9]","d: soybean, effect grade on crop [10]","f: beet, effect grade on crop [11]","I: Avena fatua, herbicidal effect (criteria 0-5) [12]","L: Apera spica-venti, herbicidal effect (criteria 0-5) [13]","M: Abutilon theophrasti, herbicidal effect (criteria 0-5) [14]","O: Chenopodium album, herbicidal effect (criteria 0-5) [15]","P: Stellaria media, herbicidal effect (criteria 0-5) [16]","R: Veronica persica, herbicidal effect (criteria 0-5) [17]","b: directly sowed rice plant, effect on crop (criteria 0-5) [18]",H (Echinochloa crus-galli var. crus-galli) herbicidal effect grade [2],"Herbicidal effect grade, F: Digitaria ciliaris [3]",also measured
COC(=O)c1ccc(CON=C(C)CC2CC(O)=C(c3c(C)cc(C)cc3C)C2=O)cc1 (centres unmarked) [1-118],2 (Herbicidal ratio of 20% or higher and lower than 40%),4 (Herbicidal ratio of 70% or higher and lower than 90%),3 (Herbicidal ratio of 40% or higher and lower than 70%),2 (Herbicidal ratio of 20% or higher and lower than 40%),3 (Herbicidal ratio of 40% or higher and lower than 70%),3 (Herbicidal ratio of 40% or higher and lower than 70%),0 (Herbicidal ratio of 5% or lower (almost no effect)),0 (Herbicidal ratio of 5% or lower (almost no effect)),0 (Herbicidal ratio of 5% or lower (almost no effect)),0 (Herbicidal ratio of 5% or lower (almost no effect)),0 (Herbicidal ratio of 5% or lower (almost no effect)),3 (Herbicidal ratio of 40% or higher and lower than 70%),3 (Herbicidal ratio of 40% or higher and lower than 70%),0 (Herbicidal ratio of 5% or lower (almost no effect)),3 (Herbicidal ratio of 40% or higher and lower than 70%),3 (Herbicidal ratio of 40% or higher and lower than 70%),3 (Herbicidal ratio of 40% or higher and lower than 70%),4 (Herbicidal ratio of 70% or higher and lower than 90%),,,
CC(CC1CC(O)=C(c2c(C)cc(C)cc2C)C1=O)=NOCc1ccccc1[N+](=O)[O-] (centres unmarked) [1-119],,5 (Herbicidal ratio of 90% or more (almost completely withered)),4 (Herbicidal ratio of 70% or higher and lower than 90%),4 (Herbicidal ratio of 70% or higher and lower than 90%),5 (Herbicidal ratio of 90% or more (almost completely withered)),5 (Herbicidal ratio of 90% or more (almost completely withered)),0 (Herbicidal ratio of 5% or lower (almost no effect)),0 (Herbicidal ratio of 5% or lower (almost no effect)),0 (Herbicidal ratio of 5% or lower (almost no effect)),0 (Herbicidal ratio of 5% or lower (almost no effect)),0 (Herbicidal ratio of 5% or lower (almost no effect)),5 (Herbicidal ratio of 90% or more (almost completely withered)),5 (Herbicidal ratio of 90% or more (almost completely withered)),1 (Herbicidal ratio of 5% or higher and lower than 20%),3 (Herbicidal ratio of 40% or higher and lower than 70%),1 (Herbicidal ratio of 5% or higher and lower than 20%),3 (Herbicidal ratio of 40% or higher and lower than 70%),5 (Herbicidal ratio of 90% or more (almost completely withered)),,,
CC#Cc1cc(C)c(C2=C(O)CC(CC(=NOC)C(C)C)C2=O)c(C)c1 (centres unmarked) [9-006],5 (Herbicidal ratio of 90% or more (almost completely withered)),,,,,,,,,,,,,,,,,,5 (Herbicidal ratio of 90% or more (almost completely withered)),5 (Herbicidal ratio of 90% or more (almost completely withered)),"Herbicidal effect grade, G: Setaria viridis [4]: 5 (Herbicidal ratio of 90% or more (almost completely withered)); Herbicidal effect grade, K: Lolium multiflorum Lam. [5]: 5 (Herbicidal ratio of 90% or more (almost completely withered)); Herbicidal effect grade, L: Apera spica-venti [6]: 5 (Herbicidal ratio of 90% or more (almost completely withered)); Herbicidal effect grade, M: Abutilon theophrasti [7]: 0 (Herbicidal ratio of 5% or lower (almost no effect)); Herbicidal effect grade, O: Chenopodium album [8]: 0 (Herbicidal ratio of 5% or lower (almost no effect)); Herbicidal effect grade, Q: Galium spurium [9]: 0 (Herbicidal ratio of 5% or lower (almost no effect)); Effect on crop grade, d: soybean [10]: 0 (Herbicidal ratio of 5% or lower (almost no effect)); Effect on crop grade, f: beet [11]: 0 (Herbicidal ratio of 5% or lower (almost no effect)); I: Avena fatua, herbicidal effect grade [12]: 4 (Herbicidal ratio of 70% or higher and lower than 90%); L: Apera spica-venti, herbicidal effect grade [13]: 5 (Herbicidal ratio of 90% or more (almost completely withered)); M: Abutilon theophrasti, herbicidal effect grade [14]: 0 (Herbicidal ratio of 5% or lower (almost no effect)); O: Chenopodium album, herbicidal effect grade [15]: 2 (Herbicidal ratio of 20% or higher and lower than 40%); P: Stellaria media, herbicidal effect grade [16]: 3 (Herbicidal ratio of 40% or higher and lower than 70%); R: Veronica persica, herbicidal effect grade [17]: 4 (Herbicidal ratio of 70% or higher and lower than 90%); b: directly sowed rice plant, effect on crop grade [18]: 5 (Herbicidal ratio of 90% or more (almost completely withered))"
CON=C(CC1CC(O)=C(c2c(C)cc(-n3cc(Cl)cn3)cc2C)C1=O)C1CC1 (centres unmarked) [9-007],5 (Herbicidal ratio of 90% or more (almost completely withered)),,,,,,,,,,,,,,,,,,5 (Herbicidal ratio of 90% or more (almost completely withered)),5 (Herbicidal ratio of 90% or more (almost completely withered)),"Herbicidal effect grade, G: Setaria viridis [4]: 5 (Herbicidal ratio of 90% or more (almost completely withered)); Herbicidal effect grade, K: Lolium multiflorum Lam. [5]: 5 (Herbicidal ratio of 90% or more (almost completely withered)); Herbicidal effect grade, L: Apera spica-venti [6]: 5 (Herbicidal ratio of 90% or more (almost completely withered)); Herbicidal effect grade, M: Abutilon theophrasti [7]: 0 (Herbicidal ratio of 5% or lower (almost no effect)); Herbicidal effect grade, O: Chenopodium album [8]: 0 (Herbicidal ratio of 5% or lower (almost no effect)); Herbicidal effect grade, Q: Galium spurium [9]: 0 (Herbicidal ratio of 5% or lower (almost no effect)); Effect on crop grade, d: soybean [10]: 0 (Herbicidal ratio of 5% or lower (almost no effect)); Effect on crop grade, f: beet [11]: 0 (Herbicidal ratio of 5% or lower (almost no effect)); I: Avena fatua, herbicidal effect grade [12]: 5 (Herbicidal ratio of 90% or more (almost completely withered)); L: Apera spica-venti, herbicidal effect grade [13]: 5 (Herbicidal ratio of 90% or more (almost completely withered)); M: Abutilon theophrasti, herbicidal effect grade [14]: 0 (Herbicidal ratio of 5% or lower (almost no effect)); O: Chenopodium album, herbicidal effect grade [15]: 3 (Herbicidal ratio of 40% or higher and lower than 70%); P: Stellaria media, herbicidal effect grade [16]: 3 (Herbicidal ratio of 40% or higher and lower than 70%); R: Veronica persica, herbicidal effect grade [17]: 4 (Herbicidal ratio of 70% or higher and lower than 90%); b: directly sowed rice plant, effect on crop grade [18]: 5 (Herbicidal ratio of 90% or more (almost completely withered))"
